Experimental data as given in patent EP0600950B1, “AMIDE TETRAZOLE ACAT INHIBITORS” (priority 1991, dated 1993).

What follows are compounds tested against acyl-CoA: cholesterol acyltransferase (ACAT) (assay: in vitro ACAT inhibition, rabbit intestinal microsomes (IAI)). Settings: radiolabeled cholesterol oleate formed from radiolabeled oleic acid.
Format: biochemical
Excerpt: The test assesses the ability of a test compound to inhibit the acylation of cholesterol by oleic acid by measuring the amount of radiolabeled cholesterol oleate formed from radiolabeled oleic acid in a tissue preparation containing rabbit intestinal microsomes (designated IAI) or from rat liver microsomes (designated LAI).

Question: Which IC50 does the source give for `CCCCCCCCCCCCn1nnc(CC(=O)Nc2c(C(C)C)cccc2C(C)C)n1` [Example 1, N-[2,6-Bis(1-methylethyl)phenyl]-2-dodecyl-2H-tetrazole-5-acetamide] here?
Answer: 3 nM

Question: How did the IC50 turn out when `CCCCCCCCCCCCn1nnnc1CC(=O)Nc1c(C(C)C)cccc1C(C)C` [Example 2, N-[2,6-Bis(1-methylethyl)phenyl]-1-dodecyl-1H-tetrazole-5-acetamide] was run?
Answer: 92 nM

Question: Which IC50 does the source give for `CCCCCCCCCCCCn1nnc(CC(=O)Nc2c(OC)ncnc2OC)n1` [Example 3, N-(4,6-dimethoxy-5-pyrimidinyl)-2-dodecyl-2H-tetra-zole-5-acetamide] here?
Answer: 7 nM

Question: `CCCCCCCCCCCCn1nnc(CC(=O)Nc2c(OC)cc(OC)cc2OC)n1` [Example 5, 2-dodecyl-N-(2,4,6-trimethoxyphenyl)-2H-tetrazole-5-acetamide] was tested. Which IC50 did it give?
Answer: 10 nM

Question: For `CCCCCCCCCCCCn1nnnc1CC(=O)Nc1c(OC)cc(OC)cc1OC` [Example 6, 1-dodecyl-N-(2,4,6-trimethoxyphenyl)-1H-tetrazole-5-acetamide], which IC50 is on record?
Answer: 120 nM

Question: For `CCCCCCCCCCCCn1nnc(CC(=O)Nc2ncccc2C)n1` [Example 7, 2-dodecyl-N-(3-methyl-2-pyridinyl)-2H-tetrazole-5-acetamide], which IC50 is on record?
Answer: 28 nM

Question: `CCCCCCCCCCCCn1nnc(CC(=O)Nc2ccc(F)cc2F)n1` [Example 9, N-(2,4-difluoro-phenyl)-2-dodecyl-2H-tetrazole-5-acetamide] was tested. Which IC50 did it give?
Answer: 280 nM

Question: How did the IC50 turn out when `CCCCCCCCCCCCn1nnc(CC(=O)Nc2c(C)nn(C)c2C)n1` [Example 11, 2-dodecyl-N-(1,3,5-trimethyl-1H-pyrazol-4-yl)-2H-tetrazole-5-acetamide] was run?
Answer: 17 nM

Question: With `CCCCCCCCCCCCn1nnc(C(C)(C)C(=O)Nc2c(OC)cc(OC)cc2OC)n1` [Example 27, 2-Dodecyl-α,α-dimethyl-N-(2,4,6-trimethoxyphenyl)-2H-tetrazole-5-acetamide] as the compound, how does the IC50 read?
Answer: 14 nM

Question: Which IC50 does the source give for `C=CCC(CC=C)(C(=O)Nc1c(OC)cc(OC)cc1OC)c1nnn(CCCCCCCCCCCC)n1` [Example 28, 2-Dodecyl-α,α'-(2-propenyl)-N-(2,4,6-trimethoxyphenyl)-2H-tetrazole-5-acetamide] here?
Answer: 18 nM

Question: How did the IC50 turn out when `CCCCCCCCCCCCn1nnc(C2(C(=O)Nc3c(OC)cc(OC)cc3OC)CCCC2)n1` [Example 29, 1-(2-Dodecyl-2H-tetrazol-5-yl)-N-(2,4,6-trimethoxyphenyl)cyclopentanecarboxamide] was run?
Answer: 10 nM

Question: Which IC50 does the source give for `CCCCCCCCCCCCCn1nnc(C(C)(C)C(=O)Nc2c(OC)cc(OC)cc2OC)n1` [Example 33, 2-Tridecyl-α,α-dimethyl-N-(2,4,6-trimethoxyphenyl)-2H-tetrazole-5-acetamide] here?
Answer: 17 nM

Question: Which IC50 does the source give for `CCCCCCCCCCCCn1nnc(CCC(=O)Nc2c(OC)cc(OC)cc2OC)n1` [Example 34, 2-Dodecyl-N-(2,4,6-trimethoxyphenyl)-2H-tetrazole-5-propanamide] here?
Answer: 69 nM

Question: For `CCCCCCCCCCCCn1nnc(CCC(=O)Nc2c(C(C)C)cccc2C(C)C)n1` [Example 35, N-(2,6-Bis(1-methylethyl)phenyl)-2-dodecyl-2H-tetrazole-5-propanamide], which IC50 is on record?
Answer: 9 nM

Question: For `CCCCCCCCCCCCn1nnc(CCC(=O)Nc2ccc(F)cc2F)n1` [Example 36, N-(2,4-Difluorophenyl)-2-dodecyl-2H-tetrazole-5-propanamide], which IC50 is on record?
Answer: > 5000 nM

Question: How did the IC50 turn out when `CCCCCCCCCCCCn1nnnc1CCC(=O)Nc1c(OC)cc(OC)cc1OC` [Example 37, 1-Dodecyl-N-(2,4,6-trimethoxyphenyl)-1H-tetrazole-5-propanamide] was run?
Answer: 210 nM

Question: With `CCCCCCCCCCCCn1nnc(C(C(=O)Nc2c(C(C)C)cccc2C(C)C)(c2ccccc2)c2ccccc2)n1` [Example 46, N-[2,6-Bis(1-methylethyl)phenyl]-2-dodecyl-α,α-diphenyl-2H-tetrazole-5-acetamide] as the compound, how does the IC50 read?
Answer: 11000 nM

Question: For `CCCCCCCCCCCCCCn1nnc(CCC(=O)Nc2c(OC)cc(OC)cc2OC)n1` [Example 47, 2-tetradecyl-N-(2,4,6-tri-methoxyphenyl)-2H-tetrazole-5-propanamide], which IC50 is on record?
Answer: 2100 nM
